Assay results: the NIST ThermoML archive (doi:10.1021/acs.jced.8b00517)
± gives the expanded uncertainty stated by the source.

Assays:
[1] = refractive index (Na D-line) (dimensionless); details: 293.15 K; 101.33 kPa; Liquid; Standard Abbe refractometry
[2] = Liquid; for mass density: 293.15 K, 101.33 kPa, Vibrating tube method; for vapor or sublimation pressure: Ebulliometric method (Recirculating still)
[3] = Boiling temperature at pressure P; details: Liquid, Ebulliometric method (Recirculating still)

Row | refractive index [1] | mass density [2] | Boiling temperature at pressure P ([3]; 19.9 kPa) | Boiling temperature at pressure P ([3]; 34.33 kPa) | Boiling temperature at pressure P ([3]; 39.89 kPa) | Boiling temperature at pressure P ([3]; 49.89 kPa) | Boiling temperature at pressure P ([3]; 58.58 kPa) | Boiling temperature at pressure P ([3]; 69.3 kPa) | Boiling temperature at pressure P ([3]; 79.88 kPa) | Boiling temperature at pressure P ([3]; 89.88 kPa) | Boiling temperature at pressure P ([3]; 98.88 kPa) | vapor or sublimation pressure ([2]; 343.15 K) | vapor or sublimation pressure ([2]; 358.15 K) | vapor or sublimation pressure ([2]; 363.15 K) | Structure (SMILES)
1 | 1.3959 ± 0.0009 | 801.49 ± 2 kg/m3 | – | – | – | – | – | – | – | – | – | – | – | – | CC(C)CO [2-methyl-1-propanol]
2 | 1.3906 ± 0.0009 | 805.86 ± 2 kg/m3 | 56.44 ± 0.22 °C | 70.32 ± 0.22 °C | 74.40 ± 0.19 °C | 80.62 ± 0.18 °C | 85.30 ± 0.17 °C | 90.4 ± 0.17 °C | 94.76 ± 0.17 °C | 98.53 ± 0.16 °C | 101.59 ± 0.16 °C | 34.4 ± 0.32 kPa | 58.64 ± 0.39 kPa | 69.36 ± 0.46 kPa | CCCC(C)=O [pentan-2-one]
